Patent US7473692B2, “Sulfonamide derivatives as D3-receptor ligands” (Richter Gedeon Vegyeszeti Gyar Rt., priority 2001, dated 2009)
Where a name gives a salt, the structure may show the parent alone.

How the values were obtained:
[1] = target: T1, rat recombinant D3 receptors expressed in Sf9 cells (Rattus norvegicus, UniProt P19020); assay: D3 receptor binding ([3H]-spiperone); settings: [3H]-spiperone 0.4 nM; non-specific binding with haloperidol 10 μM
T1 construct: purchased Research Biochemical International D-181; host or cells: Sf9 cells
Protocol: Binding study was carried out on rat recombinant D3 receptors expressed in Sf9 cells using [^3H]-spiperone (0.4 nM) as ligand and haloperidol (10 μM) for determination of non-specific binding.

[2] = target: T2, D2 receptor, rat striatal tissue (Rattus norvegicus, UniProt P61169); assay: D2 receptor binding ([3H]-spiperone); settings: [3H]-spiperone 0.5 nM, non-specific binding with (±)-sulpiride 10 μM
T2 construct: from tissue; host or cells: rat striatal tissue
Protocol: Binding of [^3H]-spiperone (0.5 nM) to rat striatal tissue was measured according to the method of Seeman (J. Neurochem., 1984, 43 221-235). The non-specific binding was determined in the presence of (±)-sulpiride (10 μM).

T1 sequence (P19020 whole entry): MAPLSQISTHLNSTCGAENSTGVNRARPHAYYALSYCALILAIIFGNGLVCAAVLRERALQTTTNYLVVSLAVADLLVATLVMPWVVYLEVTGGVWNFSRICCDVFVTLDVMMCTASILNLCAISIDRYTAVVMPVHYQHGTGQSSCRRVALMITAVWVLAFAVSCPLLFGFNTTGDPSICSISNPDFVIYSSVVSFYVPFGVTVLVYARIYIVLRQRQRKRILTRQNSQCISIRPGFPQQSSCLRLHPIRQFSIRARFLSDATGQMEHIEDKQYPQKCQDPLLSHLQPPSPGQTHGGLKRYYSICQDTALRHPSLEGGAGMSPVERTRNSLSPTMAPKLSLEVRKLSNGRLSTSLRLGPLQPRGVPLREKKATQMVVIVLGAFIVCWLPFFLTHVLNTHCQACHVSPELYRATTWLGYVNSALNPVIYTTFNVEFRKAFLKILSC
T2 sequence (P61169 whole entry): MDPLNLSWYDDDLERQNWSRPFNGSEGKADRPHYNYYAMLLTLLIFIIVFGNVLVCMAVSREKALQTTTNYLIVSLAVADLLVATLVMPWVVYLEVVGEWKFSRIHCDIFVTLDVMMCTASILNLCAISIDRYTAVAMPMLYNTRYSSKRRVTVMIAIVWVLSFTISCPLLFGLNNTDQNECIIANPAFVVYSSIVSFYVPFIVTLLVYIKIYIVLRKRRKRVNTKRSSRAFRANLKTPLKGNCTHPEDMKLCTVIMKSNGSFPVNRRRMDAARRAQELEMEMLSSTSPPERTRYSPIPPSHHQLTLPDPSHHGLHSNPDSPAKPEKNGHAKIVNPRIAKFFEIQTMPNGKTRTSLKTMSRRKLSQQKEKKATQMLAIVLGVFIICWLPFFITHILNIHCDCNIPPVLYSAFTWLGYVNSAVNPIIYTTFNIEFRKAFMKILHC

## CCCCS(=O)(=O)N[C@H]1CC[C@H](CCN2CCN(c3ccc(-c4ccccc4)cc3OC)CC2)CC1 [compound 70001485, Trans-N-(4-{2-[4-(3-methoxy-biphenyl-4-yl)-piperazin-1-yl]-ethyl}-cyclohexyl)-buthanesulfonamide]
[1]
  IC50: 5.5 nM
[2]
  IC50: 2590 nM

## COc1cc(-c2ccccc2)ccc1N1CCN(CC[C@H]2CC[C@H](NS(=O)(=O)N(C)C)CC2)CC1 [compound 70001488, Trans-N′-(4-{2-[4-(3-methoxy-biphenyl-4-yl)-piperazin-1-yl]-ethyl}-cyclohexyl)-N,N-dimethyl]
[1]
  IC50: 4.3 nM
[2]
  IC50: 245 nM

## O=S(=O)(CCCN1CCOCC1)N[C@H]1CC[C@H](CCN2CCN(c3cccc(C(F)(F)F)c3)CC2)CC1 [compound 70001934, Trans-N-(4-{2-[4-(3-trifluoromethyl-phenyl)-piperazin-1-yl]-ethyl}-cyclohexyl)-4-morpholinepropanesulfonamide]
[1]
  IC50: 1 nM
[2]
  IC50: 109 nM

## COc1cc(-c2ccccc2)ccc1N1CCN(CC[C@H]2CC[C@H](NS(=O)(=O)N(C)C)CC2)CC1 (as salt: hydrochloride) [compound 70001488, Trans-N′-(4-{2-[4-(3-methoxy-biphenyl-4-yl)-piperazin-1-yl]-ethyl}-cyclohexyl)-N,N-dimethyl]
other
  melting point: 243 to 246 °C

## N#Cc1cc(N2CCN(CC[C@H]3CC[C@H](NS(=O)(=O)c4ccc(Cl)cc4)CC3)CC2)cc(C(F)(F)F)c1 [compound 70001492, Trans-4-chloro-N-(4-{2-[4-(3-cyano-5-trifluoromethyl-phenyl)-piperazin-1-yl]-ethyl}-cyclohexyl)-benzenesulfonamide]
[1]
  IC50: 2 nM
[2]
  IC50: 65 nM

## N#Cc1cc(N2CCN(CC[C@H]3CC[C@H](NS(=O)(=O)c4ccc(Cl)s4)CC3)CC2)cc(C(F)(F)F)c1 [compound 70001766, Trans-5-chloro-N-(4-{2-[4-(3-cyano-5-trifluoromethyl-phenyl)-piperazin-1-yl]-ethyl}-cyclohexyl)-2-thiophenesulfonamide]
[1]
  IC50: 5.3 nM
[2]
  IC50: 128 nM

## O=S(=O)(N[C@H]1CC[C@H](CCN2CCC(Nc3cccc(C(F)(F)F)c3)CC2)CC1)c1ccc(Cl)cc1 [compound 70001589, Trans-4-chloro-N-(4-{2-[4-(3-trifluoromethyl-phenylamino)-piperidin-1-yl]-ethyl}-cyclohexyl)-benzenesulfonamide]
[1]
  IC50: 3 nM
[2]
  IC50: 16 nM

## O=S(=O)(N[C@H]1CC[C@H](CCN2CCC(Cc3cccc(F)c3)CC2)CC1)c1ccc(Cl)cc1 [compound 70001686, Trans-4-chloro-N-(4-{2-[4-(3-fluoro-phenylmethyl)-piperidin-1-yl]-ethyl}-cyclohexyl)-benzenesulfonamide]
[1]
  IC50: 3.9 nM
[2]
  IC50: 345 nM

## CN(C)S(=O)(=O)N[C@H]1CC[C@H](CCN2CCN(c3cc(C#N)cc(C(F)(F)F)c3)CC2)CC1 [compound 70001788, Trans-N′-(4-{2-[4-(3-cyano-5-trifluoromethyl-phenyl)-piperazin-1-yl]-ethyl}-cyclohexyl)-N,N-dimethyl-sulfamide]
[1]
  IC50: 1.5 nM
[2]
  IC50: 290 nM

## CCCCS(=O)(=O)N[C@H]1CC[C@H](CCN2CCN(c3cccc(C(F)(F)F)c3)CC2)CC1 [compound 70001596, Trans-N-(4-{2-[4-(3-trifluoromethyl-phenyl)-piperazin-1-yl]-ethyl}-cyclohexyl)-buthanesulfonamide]
[1]
  IC50: 0.6 nM
[2]
  IC50: 110 nM

## O=S(=O)(N[C@H]1CC[C@H](CCN2CCC(Oc3cccc(C(F)(F)F)c3)CC2)CC1)c1cccnc1 [compound 70001875, Trans-N-(4-{2-[4-(3-trifluoromethyl-phenoxy)-piperidin-1-yl]-ethyl}-cyclohexyl)-3-pyridinesulfonamide]
[1]
  IC50: 2.8 nM
[2]
  IC50: 66 nM

## CCCCS(=O)(=O)N[C@H]1CC[C@H](CCN2CCC(Nc3cccc(C(F)(F)F)c3)CC2)CC1 [compound 70001588, Trans-N-(4-{2-[4-(3-trifluoromethyl-phenylamino)-piperidin-1-yl]-ethyl}-cyclohexyl)-buthanesulfonamide]
[1]
  IC50: 2.5 nM
[2]
  IC50: 102 nM

## O=S(=O)(N[C@H]1CC[C@H](CCN2CCN(c3cccc(C(F)(F)F)c3)CC2)CC1)c1cccnc1 [compound 70001935, Trans-N-(4-{2-[4-(3-trifluoromethyl-phenyl)-piperazin-1-yl]-ethyl}-cyclohexyl)-3-pyridinesulfoamide]
[1]
  IC50: 0.3 nM
[2]
  IC50: 29 nM
